{"source": "patent US11324725B2", "about": "“Compositions and methods for the inhibition of pruritus” (The United States of America, as represented by the …, priority 2017, dated 2022)", "key": {"[1]": {"test": "Kinetic solubility assay (μSOL)", "format": "physicochemical", "conditions": "pH 7.4", "experimental": "The μSOL assay was used for kinetic solubility determination, as described in Avdeef, et al., “Drug absorption in vitro model: filter-immobilized artificial membranes. 2. Studies of the permeability properties of lactones in Piper methysticum Forst,” Eur J Pharm Sci 14, 271-280 (2001), which is incorporated by reference herein. In this assay, the classical saturation shake-flask solubility method was adapted as described. Test compounds were prepared as 10 mM DMSO stock solutions and diluted to a final compound concentration of 150 μM in aqueous solution (pH 7.4, 100 mM phosphate buffer). Samples were incubated at room temperature for 6 hours and vacuum-filtered using Te-Vac (Tecan, Morrisville, N.C.) to remove any precipitates. The concentration of the compound in the filtrate was measured via UV absorbance (k 250-498 nm). The unknown compound concentration was determined by comparing the fully solubilized reference plate which contained 17 μM of compound dissolved in spectroscopically pure n-propanol. All compounds were tested in duplicates. The kinetic solubility (μg/mL) of compounds was calculated using the pSOL Evolution software (Pion Inc., Billerica, Mass.). The three controls used were albendazole (low solubility), phenazolpyridine (moderate solubility) and furosemide (high solubility)."}, "C57BL/6N mice [2]": {"tested_on": "C57BL/6N mice", "test": "Acute scratching behavior, histamine-induced", "format": "in vivo, mouse", "conditions": "163 μg i.p., 10 minutes before 100 μg histamine into nape of neck; bouts per 30 minutes", "experimental": "(§1) All experiments using mice followed NIH guidelines and were approved by the National Institute of Dental and Craniofacial Research ACUC. Behavioral assessment of scratching behavior was conducted as follows: 6-8-week old female C57BL/6N mice (Envigo) were injected intraperitoneally with JS-11 (163 μg) or DMSO (20%) as a vehicle control. Ten minutes later, 100 μg histamine diluted in 10 μl PBS or 8.9 μg CYM5442 diluted in 10 μl ddH2O was injected subcutaneously into the nape of the neck. Scratching behavior was recorded for 30 minutes and is presented in bouts per 30 minutes. One bout was defined as scratching behavior towards the injection site between lifting the hind leg from the ground and either putting it back on the ground or guarding the paw with the mouth. To control for motor impairment by JS-11, rota-rod performance was also assessed 10 minutes after intraperitoneal injection."}, "[3]": {"test": "Parallel artificial membrane permeability assay (PAMPA)", "format": "in vitro ADME", "conditions": "pH 7.4", "from_the_text": "Stirring double-sink PAMPA method was employed to determine the permeability of compounds via PAMPA. The PAMPA lipid membrane consisted of an artificial membrane of a proprietary lipid mixture and dodecane (Pion Inc., Billerica, Mass.), optimized to predict gastrointestinal tract passive permeability. The lipid was immobilized on a plastic matrix of a 96-well “donor” filter plate placed above a 96-well “acceptor” plate. pH 7.4 solution was used in both donor and acceptor wells. The test articles, stocked in 10 mM DMSO solutions, were diluted to 0.05 mM in aqueous buffer (pH 7.4), and the concentration of DMSO was 0.5% in the final solution. During the 30-minute permeation period at room temperature, the test samples in the donor compartment were stirred using the Gutbox technology (Pion Inc.) to reduce the aqueous boundary layer. The test article concentrations in the donor and acceptor compartments were measured using a UV plate reader (Nano Quant, Infinite® 200 PRO, Tecan). Permeability calculations were performed using Pion Inc. software and were expressed in units of 10-6 cm/s. Compounds with low or weak UV signal were analyzed using high resolution LC/MS (Thermo QExactive, Thermo Fisher)."}, "C57BL/6N mice [4]": {"tested_on": "C57BL/6N mice", "test": "Rotarod performance and gross behavior after JS-11", "format": "in vivo, mouse", "experimental": "as §1"}, "C57BL/6N mice [5]": {"tested_on": "C57BL/6N mice", "test": "Acute scratching behavior, CYM5442-induced", "format": "in vivo, mouse", "conditions": "163 μg i.p., 10 minutes before 8.9 μg CYM5442 into nape of neck; bouts per 30 minutes", "experimental": "as §1"}, "C57BL/6N mice [6]": {"tested_on": "C57BL/6N mice", "test": "Contact hypersensitivity (DNFB) model of chronic scratching", "format": "in vivo, mouse", "conditions": "163 μg i.p.", "experimental": "The contact hypersensitivity model was performed as follows: the back of 6-8-week old female C57BL/6N mice (Envigo) was shaved with electric clippers. After 2 days, 25 μl of 0.5% (v/v) dinitro-fluoro-benzene (DNFB) diluted in a 4:1 mixture of acetone and olive oil was applied to the shaved back skin. Hapten challenge was performed 5 days after sensitization by applying 40 μl of 0.2% (v/v) DNFB in the same vehicle on the left ear and 40 μl of vehicle alone on the right ear. […] Mice were then injected intraperitoneally with JS-11 (163 μg) or DMSO (20%) as a vehicle control. After 10 minutes, scratching was again observed for 30 minutes. To assess skin inflammation, ear thickness was measured with a thickness gauge (Mitutoyo, Aurora, Ill.) before and 30 minutes after JS-11/DMSO injections and normalized to ear thickness before hapten challenge."}}, "note": "Entries after “also recorded” stand apart in the source; their conditions may differ.", "data": [{"smiles": "Cc1cc(CNC(=O)c2ccc3c(c2)n(CC2CC2)c(=O)n3C2CCCCC2)on1", "note": "[JS-11, 1-cyclohexyl-3-(cyclopropylmethyl)-N-((3-methylisoxazol-5-yl)methyl)-2-oxo-2,3-dihydro-1H-benzo[d]imidazole-5-carboxamide]", "values": [{"measurement": "water solubility", "setting": "[1]", "result": "relatively high-water solubility"}, {"measurement": "Scratching responses to histamine", "setting": "C57BL/6N mice [2]", "result": "reduced scratching responses to histamine by more than half; also recorded: significantly attenuated"}, {"measurement": "Papp at 30 min, 0.05 mM", "setting": "[3]", "result": 7.4, "unit": "×10⁻⁶ cm/s"}, {"measurement": "Overall mouse behavior", "setting": "C57BL/6N mice [4]; 163 μg intraperitoneally", "result": "no gross change in overall mouse behavior"}, {"measurement": "Motor coordination (rotarod performance)", "setting": "C57BL/6N mice [4]; 10 minutes after 163 μg JS-11 intraperitoneally", "result": "no impairment of motor coordination; also recorded: not significantly altered"}, {"measurement": "Scratching responses to CYM5442", "setting": "C57BL/6N mice [5]", "result": "strongly attenuated itch response; also recorded: significantly attenuated"}, {"measurement": "Skin inflammation (% ear thickness) after hapten challenge", "setting": "C57BL/6N mice [6]; measured before and 30 minutes after injection", "result": "had no effect on skin inflammation; also recorded: no differences in % ear thickness were detectable"}, {"measurement": "Hapten-induced scratching responses", "setting": "C57BL/6N mice [6]; scratching observed 30 minutes, from 10 minutes after injection", "result": "attenuated hapten-induced scratching responses by about a half; also recorded: significantly reduced"}]}]}
